{"source": "patent US9237988B2", "about": "“Benzalkonium chloride compositions for inhibiting the hydrolytic activity of endogenous matrix metalloproteinases in dental restorations” (Bisco, Inc., priority 2010, dated 2016)", "molecular_target": "MMP-9 enzymes (Homo sapiens, UniProt P14780)", "sequence (P14780 94-707)": "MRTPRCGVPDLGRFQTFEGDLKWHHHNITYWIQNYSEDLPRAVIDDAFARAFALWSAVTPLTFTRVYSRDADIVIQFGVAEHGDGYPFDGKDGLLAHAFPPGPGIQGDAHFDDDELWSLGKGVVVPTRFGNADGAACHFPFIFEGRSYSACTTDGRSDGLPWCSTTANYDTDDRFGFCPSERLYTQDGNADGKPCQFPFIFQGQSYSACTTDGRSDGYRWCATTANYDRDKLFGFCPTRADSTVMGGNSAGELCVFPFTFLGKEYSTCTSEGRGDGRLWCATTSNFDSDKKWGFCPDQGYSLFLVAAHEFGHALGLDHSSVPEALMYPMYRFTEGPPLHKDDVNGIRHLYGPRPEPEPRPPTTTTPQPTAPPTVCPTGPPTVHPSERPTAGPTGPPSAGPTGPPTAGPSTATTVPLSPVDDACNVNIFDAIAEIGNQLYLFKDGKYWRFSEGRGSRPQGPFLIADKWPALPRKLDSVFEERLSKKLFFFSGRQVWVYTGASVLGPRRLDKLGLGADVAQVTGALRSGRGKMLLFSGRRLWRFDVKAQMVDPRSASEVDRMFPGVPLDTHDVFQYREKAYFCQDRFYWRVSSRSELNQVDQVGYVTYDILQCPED", "test": "MMP inhibition after incubation with MMP-9 enzymes, Anaspec SensoLyte Generic MMP Assay Kit", "format": "biochemical", "conditions": "for Percent MMP Inhibition at 1 Hour / Percent MMP Inhibition at 4 Hours: aqueous solution; for Percent MMP Inhibition at 1 Hour: 1 hour incubation; for Percent MMP Inhibition at 4 Hours: 4 hours incubation", "description": "According to another presently expected one exemplary embodiment of the present application, multiple benzalkonium chloride dental solutions were prepared in aqueous solutions in concentrations varying from 0.02% to 2%, and were incubated with MMP-9 enzymes for 4 hours. After both 1 and 4 hours of incubation, standard negative and positive controls were compared to the below concentrations of the test compositions using an Anaspec SensoLyte Generic MMP Assay Kit (#72095, Anaspec, Fremont, Calif., USA), with the resulting MMP inhibitions shown in Tables 1 and 2 below.", "key": {"[1]": {"conditions": "0.5% BAC by weight, listed as benzalkonium chloride"}}, "data": [{"substance": "benzalkonium chloride [BAC]", "values": [{"measurement": "Percent MMP Inhibition at 1 Hour", "setting": "0.02% BAC by weight", "value": 0, "unit": "%"}, {"measurement": "Percent MMP Inhibition at 4 Hours", "setting": "0.02% BAC by weight", "value": 3, "unit": "%"}, {"measurement": "Percent MMP Inhibition at 1 Hour", "setting": "0.05% BAC by weight", "value": 0, "unit": "%"}, {"measurement": "Percent MMP Inhibition at 4 Hours", "setting": "0.05% BAC by weight", "value": 6, "unit": "%"}, {"measurement": "Percent MMP Inhibition at 1 Hour", "setting": "0.5% BAC by weight", "value": 96.5, "unit": "%"}, {"measurement": "Percent MMP Inhibition at 1 Hour", "setting": "[1]", "value": 96, "unit": "%"}, {"measurement": "Percent MMP Inhibition at 4 Hours", "setting": "0.5% BAC by weight", "value": 85, "unit": "%"}, {"measurement": "Percent MMP Inhibition at 4 Hours", "setting": "[1]", "value": "at least 85%"}, {"measurement": "Percent MMP Inhibition at 1 Hour", "setting": "1.0% BAC by weight", "value": 98.3, "unit": "%"}, {"measurement": "Percent MMP Inhibition at 4 Hours", "setting": "1.0% BAC by weight", "value": 95, "unit": "%"}, {"measurement": "Percent MMP Inhibition at 1 Hour", "setting": "2.0% BAC by weight", "value": 100, "unit": "%"}, {"measurement": "Percent MMP Inhibition at 4 Hours", "setting": "2.0% BAC by weight", "value": 100, "unit": "%"}, {"measurement": "MMP inhibition", "setting": "concentration as low as 0.02% by weight, time not stated", "value": "displayed MMP inhibition"}]}]}
